According to PMC8421423, “Cellular model system to dissect the isoform-selectivity of Akt inhibitors” (Nature Communications, 2021):
“And” between values parts separate entries of the source, which are not always exact repeats. Equal entries are not always repeated. Where two headings read alike, the source gives them in different places.

Legend:
Akt2 [1] = target: T1, Akt2 (Homo sapiens, UniProt P31751); test: PhosphoSens continuous fluorometric kinetic enzyme assay
Target sequence in this assay (P31751 whole entry): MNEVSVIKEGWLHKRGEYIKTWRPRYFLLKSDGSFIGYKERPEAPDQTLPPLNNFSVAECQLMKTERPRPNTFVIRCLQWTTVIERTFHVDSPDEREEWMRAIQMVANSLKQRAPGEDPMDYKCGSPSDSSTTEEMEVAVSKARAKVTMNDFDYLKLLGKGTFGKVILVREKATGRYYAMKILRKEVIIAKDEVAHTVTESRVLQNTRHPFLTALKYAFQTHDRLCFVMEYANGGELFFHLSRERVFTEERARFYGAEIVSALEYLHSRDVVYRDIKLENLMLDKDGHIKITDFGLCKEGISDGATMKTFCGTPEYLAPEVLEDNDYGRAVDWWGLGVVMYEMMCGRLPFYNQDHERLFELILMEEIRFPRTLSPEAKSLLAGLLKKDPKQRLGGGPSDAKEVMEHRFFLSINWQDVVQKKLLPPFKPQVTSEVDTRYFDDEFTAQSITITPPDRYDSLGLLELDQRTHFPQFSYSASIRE
Experimental: (§2) By addition of either 8 nM Akt1, 2 nM Akt2, or 5 nM Akt3 (final concentrations) the reactions were initiated. […] Afterwards the kobs-values were plotted versus the inhibitor concentrations [I] and then fit to the following hyperbolic Eq.

Akt3 [2] = target: T2, Akt3 (Homo sapiens, UniProt Q9Y243, E113A/E114A/E115A); test: ESI-MS/MS of tryptic digest (modified cysteine residues); type: binding; details: 5-fold molar excess of inhibitor
T2 construct: AKT3(2–443, E114/115/116A); His6 with TEV protease recognition site (N, cleaved yes); made in house; host or cells: Spodoptera frugiperda (Sf9)
T2 sequence (Q9Y243 2-443 E113A/E114A/E115A): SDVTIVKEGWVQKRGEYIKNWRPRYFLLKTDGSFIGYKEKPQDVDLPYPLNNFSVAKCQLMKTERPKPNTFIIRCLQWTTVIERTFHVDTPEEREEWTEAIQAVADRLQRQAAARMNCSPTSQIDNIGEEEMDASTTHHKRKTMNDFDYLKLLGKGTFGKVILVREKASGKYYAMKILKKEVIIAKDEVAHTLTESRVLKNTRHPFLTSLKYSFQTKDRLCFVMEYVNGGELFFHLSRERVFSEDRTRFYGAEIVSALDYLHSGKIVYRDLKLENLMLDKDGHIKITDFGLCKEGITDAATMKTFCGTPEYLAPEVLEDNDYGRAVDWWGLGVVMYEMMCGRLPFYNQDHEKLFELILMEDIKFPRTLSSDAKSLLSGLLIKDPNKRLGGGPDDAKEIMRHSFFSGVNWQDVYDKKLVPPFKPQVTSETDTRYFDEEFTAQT
Experimental: (§1) ESI-MS/MS samples were prepared as stated above followed by steps of reduction, alkylation, and tryptic digest. The digested samples were stage tip-purified using C18 tips and according to a protocol described elsewhere. Subsequently, samples were thawed, dissolved in 20 μL of 0.1% TFA in water, sonicated at room temperature for 15 min, and centrifuged at 15,000×g for 1 min shortly before analysis. In all, 3 μL of sample were loaded onto a pre-column cartridge and desalted for 5 min using 0.1% TFA in water as eluent at a flow rate of 30 μL/min. The samples were back-flushed from the pre-column to the nano-HPLC column during the whole analysis. Elution was performed using a gradient starting at 5% B with a final composition of 30% B after 35 min (flow rate 300 nL/min) using 0.1% formic acid in water as eluent A and 0.1% formic acid in acetonitrile as eluent B and a column temperature of 40 °C. […] During the complete gradient cycle, a typical TOP10 shot-gun proteomics method for the MS and MS/MS analysis was used. For full scan MS experiments a mass range of m/z 300–1650 was scanned with a resolution of 70000. MS/MS experiments were followed by up to 10 high energy collision dissociation (HCD) MS/MS scans with a resolution of 17,500 of the most intense at least doubly charged ions. Data evaluation was performed using MaxQuant[50]. Spectra were searched against the specific Akt sequence and a contamination database using a false discovery rate of 1% on peptide and protein level using a decoy database for determination of the false discovery rate. For database search oxidation of methionine and N-terminal acetylation of proteins, carbamidomethylation of cysteines, and artificial modification of cysteines were defined as variable modifications.

Akt3 [3] = target: Akt3 (Homo sapiens, UniProt Q9Y243); test: PhosphoSens continuous fluorometric kinetic enzyme assay
Akt3 (Homo sapiens, UniProt Q9Y243), sequence (Q9Y243 whole entry): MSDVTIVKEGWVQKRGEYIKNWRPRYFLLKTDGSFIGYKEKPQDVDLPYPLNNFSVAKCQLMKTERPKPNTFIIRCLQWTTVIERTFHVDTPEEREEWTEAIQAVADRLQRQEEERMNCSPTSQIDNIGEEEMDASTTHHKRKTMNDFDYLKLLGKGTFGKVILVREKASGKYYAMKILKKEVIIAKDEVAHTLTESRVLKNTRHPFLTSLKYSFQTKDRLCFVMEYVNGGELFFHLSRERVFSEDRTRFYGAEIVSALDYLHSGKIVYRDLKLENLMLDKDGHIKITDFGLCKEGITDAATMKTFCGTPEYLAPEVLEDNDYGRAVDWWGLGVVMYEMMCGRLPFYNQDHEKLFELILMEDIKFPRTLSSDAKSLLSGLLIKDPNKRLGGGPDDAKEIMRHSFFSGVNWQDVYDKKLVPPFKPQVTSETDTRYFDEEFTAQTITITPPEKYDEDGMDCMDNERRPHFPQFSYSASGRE
Experimental: as §2

pAkt1 = test: Western blot analysis, PANC1 cells; type: cell-based, human; details: PANC1, 24-h treatment
Akt1 = Akt1 (Homo sapiens, UniProt P31749); test: PhosphoSens continuous fluorometric kinetic enzyme assay
Akt1, sequence (P31749 whole entry): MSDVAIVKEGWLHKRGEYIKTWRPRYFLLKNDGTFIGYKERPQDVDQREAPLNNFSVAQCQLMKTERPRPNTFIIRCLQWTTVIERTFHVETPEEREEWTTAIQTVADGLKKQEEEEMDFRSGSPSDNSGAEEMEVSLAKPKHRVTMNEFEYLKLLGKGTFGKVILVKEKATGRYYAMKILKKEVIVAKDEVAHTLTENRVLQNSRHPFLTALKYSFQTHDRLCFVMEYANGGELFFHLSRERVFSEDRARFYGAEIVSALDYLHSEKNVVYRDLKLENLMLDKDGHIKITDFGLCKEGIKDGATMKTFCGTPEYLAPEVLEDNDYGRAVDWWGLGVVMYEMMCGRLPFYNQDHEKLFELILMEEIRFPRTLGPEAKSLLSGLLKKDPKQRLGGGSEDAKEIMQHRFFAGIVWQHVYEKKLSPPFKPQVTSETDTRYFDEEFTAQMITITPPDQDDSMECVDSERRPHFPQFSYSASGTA
Experimental: as §2

Akt2 [4] = target: T1, Akt2; test: ESI-MS/MS of tryptic digest (modified cysteine residues); type: binding; set-up: AKT2(2–447); His6 with TEV protease recognition site (N, cleaved yes); made in house; host or cells: Spodoptera frugiperda (Sf9); details: 5-fold molar excess of inhibitor
Experimental: as §1, with “Spectra were searched against the specific Akt sequence and a contamination database using a false discovery rate of 1% on peptide and protein level using a decoy database for determination of the false discovery rate. For database search oxidation of methionine and N-terminal acetylation of proteins, carbamidomethylation of cysteines, and artificial modification of cysteines were defined as variable modifications.” left out
Target sequence in this assay (P31751 2-447): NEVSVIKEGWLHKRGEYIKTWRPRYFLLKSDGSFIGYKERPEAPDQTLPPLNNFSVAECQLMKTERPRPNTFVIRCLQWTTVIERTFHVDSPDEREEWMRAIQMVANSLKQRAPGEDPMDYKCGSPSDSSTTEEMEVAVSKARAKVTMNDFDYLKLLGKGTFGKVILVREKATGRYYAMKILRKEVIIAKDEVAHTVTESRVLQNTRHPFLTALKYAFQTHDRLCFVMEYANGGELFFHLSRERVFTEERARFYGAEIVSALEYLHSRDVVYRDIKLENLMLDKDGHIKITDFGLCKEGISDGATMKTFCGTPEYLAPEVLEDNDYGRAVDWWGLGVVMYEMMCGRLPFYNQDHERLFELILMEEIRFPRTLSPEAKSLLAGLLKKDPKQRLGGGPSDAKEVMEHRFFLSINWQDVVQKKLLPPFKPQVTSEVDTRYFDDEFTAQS

[5] = Ki Akt2, Mean, mean of replicates
[6] = Ki Akt2, individual determinations, single replicates
[7] = read-out: kinact Akt2, individual determinations, single replicates
[8] = Ki Akt3, Mean, mean of replicates
[9] = Ki Akt3, individual determinations, single replicates
[10] = read-out: kinact /Ki Akt3, individual determinations, single replicates
[11] = read-out: kinact Akt3, Mean, mean of replicates
[12] = read-out: kinact Akt3, individual determinations, single replicates

Row | SMILES | Ki (Akt2 [1]; Ki Akt2) | Ki (Akt2 [1]; [5]) | Ki (Akt2 [1]; [6]) | kinact/KI (Akt2 [1]; read-out: kinact /Ki Akt2) | kinact (Akt2 [1]; read-out: kinact Akt2) | kinact (Akt2 [1]; [7]) | kinact Akt2, individual determinations (Akt2 [1]; single replicates) | Ki (Akt3 [3]; Ki Akt3) | Ki (Akt3 [3]; [8]) | Ki (Akt3 [3]; [9]) | kinact/KI (Akt3 [3]; read-out: kinact /Ki Akt3) | kinact/KI (Akt3 [3]; [10]) | kinact (Akt3 [3]; read-out: kinact Akt3) | kinact (Akt3 [3]; [11]) | kinact (Akt3 [3]; [12]) | kinact Akt3, individual determinations (Akt3 [3]; single replicates) | pAkt1 level (immunoblot) (pAkt1) | also measured
1 | C=CC(=O)Nc1ccc2[nH]c(=O)n(C3CCN(Cc4ccc(-c5ncc(Cc6ccc(N)nc6)cc5-c5ccccc5)cc4)CC3)c2c1 [compound 20] | 95 ± 14 nM | 94.4 nM | 98.6 nM and 101 nM and 71.2 nM and 107 nM | 4000 ± 1000 M⁻¹ s⁻¹ | 0.00035 s⁻¹ | 0.000383 s⁻¹ | 0.025 min⁻¹ and 0.022 min⁻¹ and 0.015 min⁻¹ | 53 ± 4 nM | 70.1 nM | 71.5 nM and 73.4 nM and 65.4 nM | 10000 ± 3000 M⁻¹ s⁻¹ | 8000 M⁻¹ s⁻¹ | 0.000733 s⁻¹ | 0.000767 s⁻¹ | 0.00055 s⁻¹ | 0.061 min⁻¹ | – | kinact/KI (Akt2 [1]; read-out: kinact /Ki Akt2, Mean, mean of replicates): 4000 M⁻¹ s⁻¹; modified cysteine residues in Akt3 (MS/MS) (Akt3 [2]): Cys293; kobs (mean) (Akt3 [3]; Akt3 + 20, concentration 2.5 nM): 5.68e-05 s⁻¹; kobs (mean) (Akt3 [3]; Akt3 + 20, concentration 4.9 nM): 4.71e-05 s⁻¹; kobs (mean) (Akt3 [3]; Akt3 + 20, concentration 9.9 nM): 8.01e-05 s⁻¹; kobs (mean) (Akt3 [3]; Akt3 + 20, concentration 39.5 nM): 0.00023 s⁻¹; kobs (mean) (Akt3 [3]; Akt3 + 20, concentration 123.8 nM): 0.000418 s⁻¹; kobs (mean) (Akt3 [3]; Akt3 + 20, concentration 247.5 nM): 0.000431 s⁻¹; kobs (mean) (Akt3 [3]; Akt3 + 20, concentration 371.3 nM): 0.000653 s⁻¹; kinact/KI (Akt3 [3]; read-out: kinact /Ki Akt3, Mean, mean of replicates): 11000 M⁻¹ s⁻¹
2 | C=CC(=O)Nc1ccc2[nH]c(=O)n(C3CCN(Cc4ccc(-c5ncccc5-c5ccccc5)cc4)CC3)c2c1 [compound 1] | – | – | – | – | – | – | – | – | – | – | – | – | – | – | – | – | downregulation of pAkt1 and pAkt2 | Ki (Akt1; Ki Akt1): 6 ± 2 nM; Ki (Akt1; Ki Akt1, Mean, mean of replicates): 5.77 nM; Ki (Akt1; Ki Akt1, individual determinations, single replicates): 3.95 nM and 5.28 nM and 8.08 nM; kinact/KI (Akt1; read-out: kinact /Ki Akt1): 38000 ± 10000 M⁻¹ s⁻¹; kinact/KI (Akt1; read-out: kinact /Ki Akt1, Mean, mean of replicates): 36000 M⁻¹ s⁻¹; kinact/KI (Akt1; read-out: kinact /Ki Akt1, individual determinations, single replicates): 36000 M⁻¹ s⁻¹; kinact (Akt1; read-out: kinact Akt1): 0.0002 s⁻¹; kinact (Akt1; read-out: kinact Akt1, individual determinations, single replicates): 0.00015 s⁻¹; kinact Akt1, individual determinations (Akt1; single replicates): 0.015 min⁻¹ and 0.011 min⁻¹
3 | C=CC(=O)Nc1ccc2[nH]c(=O)n(C3CCN(Cc4ccc(-c5ncc(Cc6cn[nH]c6)cc5-c5ccccc5)cc4)CC3)c2c1 [compound 14] | 11 ± 2 nM | 10.4 nM | 13.2 nM and 8 nM and 9.9 nM | 25000 ± 6000 M⁻¹ s⁻¹ | 0.000267 s⁻¹ | 0.0002 s⁻¹ | 0.015 min⁻¹ and 0.017 min⁻¹ | 29 ± 4 nM | 29.3 nM | 35.5 nM and 27.7 nM and 30 nM and 24.2 nM | 13000 ± 2000 M⁻¹ s⁻¹ | 11000 M⁻¹ s⁻¹ | 0.000367 s⁻¹ | 0.000367 s⁻¹ | 0.0004 s⁻¹ | 0.023 min⁻¹ and 0.019 min⁻¹ and 0.022 min⁻¹ | pAkt1 signal remained stable | kinact/KI (Akt2 [1]; read-out: kinact /Ki Akt2, individual determinations, single replicates): 15000 M⁻¹ s⁻¹; kinact (Akt2 [1]; read-out: kinact Akt2, Mean, mean of replicates): 0.00025 s⁻¹; modified cysteine residues in Akt2 (MS/MS) (Akt2 [4]): Cys297, Cys311, and Cys124
